# Test results taken from a melting point compilation (Tetko et al.; mined from patent text by program, amines drawn as free bases though some values may be those of a salt).
row,SMILES,melting point
1,CNC(=O)c1cc(-c2ccc(OC)c(F)c2)nn(CC2CC2)c1=O,140 to 141 °C
2,COc1ccc(C=C2NC(=O)NC2=O)cc1OC1CCCC1,220 to 222 °C
3,CC(=O)NC[C@H]1CN(c2ccc(C(=O)c3cnc4ccccn34)cc2)C(=O)O1,218 to 220 °C
4,CN(C)C1(c2ccccc2)CCC(=CC(=O)NCCCCCc2c[nH]c3ccccc23)CC1 (stereo unspecified),68 to 72 °C
5,O=CC1CC1(c1ccccc1)c1ccccc1 (stereo unspecified),71 to 73 °C
6,CC(=O)c1cnc2c(NC(=O)c3c(Cl)cccc3Cl)cccc2c1,243 to 245 °C
7,Cc1c[nH]c2c(C=O)cccc12,77 to 79 °C
8,CCOC(=O)c1cc(CC)sc1Nc1ccccc1N,50 to 52 °C
9,N#Cc1ccc(-c2cn(-c3ccc(Br)cc3)c(C(=O)O)c2C(=O)O)cc1,217 to 221 °C
10,Cc1ccc(C(=O)CCl)cc1S(N)(=O)=O,166 °C
11,CC1CSC2=C(O1)c1cc(-c3ccccc3)ccc1C(=O)C2=O (stereo unspecified),190 to 192 °C
12,O=Cc1cc(O)c(OCc2ccccc2)cc1O,147 to 148 °C
13,CCOc1ccc2nc(COc3ccc(CC4SC(=O)NC4=O)cc3)n(C)c2n1 (stereo unspecified),245 to 246 °C
14,Cc1nc(Cl)c(Cl)n1CCCCN1CCN(c2ncc(O)cn2)CC1,154 to 156 °C
15,CC(C)C[C@@H](NC(=O)c1cnc(N2CCC(N3C(=O)OCc4ccccc43)CC2)c(Cl)c1)C(N)=O,139 to 142 °C
16,N#CCCCC(=NO)c1ccc(Cl)c(Cl)c1,122 to 123 °C
17,CCOCOC(=O)Cc1c(C)n(C(=O)c2ccc(Cl)cc2)c2ccc(OC)cc12,60 to 61 °C
18,COc1ccccc1OCC(O)CN1CCC(N2CCCNC2=O)CC1 (stereo unspecified),130 to 133 °C
19,CCOC(=O)CNC1=C(C(=O)c2cccnc2Cl)CCC1,114 to 118 °C
20,O=C(O)c1ccc(-c2noc(-c3ccc(C(F)(F)F)cc3)n2)cc1,286 to 287 °C
21,CC(C)C(=O)NCCOc1ccc(N)cc1,99 to 100 °C
22,COc1cccc(S(=O)(=O)c2cccc(F)c2C#N)c1,113 to 117 °C
23,NCC1c2ccccc2CCN1CC(O)CN1CCOCC1 (stereo unspecified),138 to 139 °C
24,O=C1C=C(CC2CCCC(C(F)(F)F)C2)C(=O)c2ccccc21 (stereo unspecified),65 °C
25,CC(C)(C)C(=O)c1occc1C(=O)O,85 to 89 °C
26,CC(C)C1(C)N=C(c2ncccc2C(=O)O)N(C#N)C1=O (stereo unspecified),150 to 153 °C

row,SMILES,melting point
1,OC(CNC1=NCCN1)c1ccc(F)cc1 (stereo unspecified),153 °C
2,N#Cc1cc2c(cc1Br)nc1n2CCC1,224 °C
3,COc1ccc(N)cc1NCC(N)=O,144 °C
4,Cc1cc(OCc2coc(/C=C/c3ccc(OC(F)(F)F)cc3)n2)ccc1CCCCc1cn(C(c2ccccc2)(c2ccccc2)c2ccccc2)nn1,135 to 136 °C
5,CC(C)(C)NC(=O)[C@@H]1C[C@@H]2CCCC[C@@H]2CN1C[C@@H](O)[C@H](Cc1ccccc1)NC(=O)[C@@H](Nc1nc(CO)cs1)C(C)(C)S(C)(=O)=O,126 °C
6,CC(Br)CCC(C)(N)P(O)O (stereo unspecified),146 to 148 °C
7,CS(=O)(=O)c1ccc(-c2cnn(-c3cccc(Br)c3)c(=O)c2Oc2ccc(F)cc2)cc1,208 to 210 °C
8,NC(=O)N(O)CCNC(=O)CCc1ccccc1,165 to 167 °C
9,Cc1cc(C2(C(F)(F)F)ON=C(c3ccc(F)cc3)O2)ccc1NC(=O)c1cccc(I)c1C(=O)NC(C)C (stereo unspecified),99 to 112 °C
10,CN(CC1COc2ccccc2O1)S(N)(=O)=O (stereo unspecified),97 to 98 °C
11,CC(C)(C)n1nnc(NC(=O)C(c2ccccc2)c2ccccc2)n1,191 to 192 °C
12,O=C(CCCl)c1ccc2[nH]c3ccccc3c2c1,148 to 151 °C
13,O=C(O)Cc1ccc2cc(OCc3ccc4ccccc4n3)ccc2c1,199 to 202 °C
14,CCCC1(CCC)c2cc(-c3nc4cc(C)ccc4o3)ccc2-c2cc(O)c(-c3nc4cc(C)ccc4o3)cc21,291 to 293 °C
15,Cc1cc(Br)cnc1CCCCN,35 to 37 °C
16,CC(C)(C)c1ccc2c(c1)c(Sc1ccccc1)c(CC(=O)O)n2Cc1ccc(Cl)cc1,148 to 150 °C
17,CC1CN(c2ccc([N+](=O)[O-])nc2)C1,141 to 143 °C
18,O=C(Cc1c[nH]c2ccccc12)NCCN1CCC(Nc2nc3ccccc3n2Cc2ccc(F)cc2)CC1,194 °C
19,CNc1cc(Oc2ccc3c(C(=O)Nc4ccc(N5CCOCC5)c(C(F)(F)F)c4)cccc3c2)ncn1,156 to 157 °C
20,O=S(=O)(NC(Cc1ccc(O)cc1)c1ccccc1)c1ccc(Cl)cc1 (stereo unspecified),174 to 178 °C
21,Cc1cc(C)n(Cc2ccc(Cl)cc2Cl)c1C=O,88 to 89 °C
22,COc1cc(NCCCCCC(=O)NCC(C)C)c2nccc(C)c2c1,111 to 112 °C
23,O=Cc1cccn1-c1ccc(C(=O)O)cc1,269 to 270 °C
24,CCOC1(C(Cl)(Cl)Cl)NC(=O)C(=O)N1,189 to 201 °C
25,CCCCc1nc(C(C)(C)O)c(C#N)[nH]1,171 to 172 °C
26,Cc1cc(C)cc(C(=O)c2c(-c3ccc(OCCN(C)C)cc3)oc3ccccc23)c1,132 to 135 °C

row,SMILES,melting point
1,N#Cc1nn(-c2c(Cl)cc(C(F)(F)F)cc2Cl)c(Br)c1O,145 to 151 °C
2,CNc1cc(F)ccc1-c1c(C#N)n[nH]c1-c1ccc(S(C)(=O)=O)cc1,192 to 193 °C
3,CC(=O)Oc1ccc(C=Cc2cc(OC(C)=O)cc(OC(C)=O)c2)cc1,112 to 113 °C
4,CCC(=O)SCCNC(=O)CCNC(=O)OCc1ccccc1,77 to 104 °C
5,CCCCc1nc(C(C)(O)CC)c(C#N)[nH]1 (stereo unspecified),139 to 142 °C
6,CN(C)Cc1cccc(-c2csc(N=C(N)N)n2)n1,160 to 162 °C
7,CSc1ccc(-c2n[nH]c(=O)cc2-c2ccccc2)cc1,186 °C
8,C=CCOc1cccc2nn(C)c(S(N)(=O)=O)c12,143 to 144 °C
9,Oc1ccc(C(F)(F)F)c2ccccc12,132 to 133 °C
10,N#Cc1ccc(NC(=O)N[C@@H]2C[C@@H]2c2c(F)cccc2Cl)nc1 (relative stereo),189 °C
11,O=c1cc2ccccc2c[nH]1,201 °C
12,COc1ccc(CN(Cc2ccc(OC)cc2)c2nc(Cl)c3ncn(Cc4ccc(OC)cc4)c3n2)cc1,157 to 159 °C
13,COC(=O)c1cc(C=O)c(C(F)(F)F)cc1NC(C)=O,106 to 108 °C
14,Cc1occc1S(=O)(=O)C(C)(Cc1ccccc1)C(=O)NO (stereo unspecified),68 to 70 °C
15,CC1(C)CC(=O)CC(C)(C)N1C#N,75 to 76 °C
16,O=C1NC(=O)c2c1c(-c1ccccc1Cl)cc1c2c2cc(O)c(OCCCN3CCOCC3)cc2n1CCO,253 to 255 °C
17,COC(=O)C1=Cc2cc(-c3ccc(OCCOC(C)C)cc3)ccc2N(S(C)(=O)=O)CC1,119 to 121 °C
18,CN1Cc2c(C#Cc3ccccc3Cl)ncn2-c2ccc(F)cc2C1=O,259 to 261 °C
19,CCOc1c(C(F)(F)F)cc([N+](=O)[O-])c(Nc2ncc(C(F)(F)F)cc2Cl)c1[N+](=O)[O-],106 to 108 °C
20,O=C(NCCO)/C(=C/c1ccc(OC(F)(F)F)cc1)NC(=O)c1ccc(Oc2ccc(Cl)cc2)cc1,77 to 82 °C
21,O=C1CCC2CC(c3ccccc3)c3cccc1c32 (stereo unspecified),99 °C
22,CS(=O)(=O)Nc1ccc(-c2nc(C(F)(F)F)c[nH]2)cc1,253 to 255 °C
23,CC(C)c1ccc(S(=O)(=O)c2ccccc2)c(C(C)C)c1,105 to 107 °C
24,CCOC(=O)c1c(C(F)(F)F)nc(C(F)F)c(C(=O)OC)c1N(C)C,80 to 81 °C
25,COC(=O)[C@H]1[C@@H](N=[N+]=[N-])C(=O)N1Cc1ccc(OC)cc1OC (relative stereo),82 to 84 °C
26,COc1ccccc1NC(=O)Nc1ccc(C2=CCN(C(=O)Nc3ccc(OCCO)cc3Cl)CC2)cc1,120 to 125 °C

row,SMILES,melting point
1,COc1cc2c(c(Cl)c1Cl)S(=O)(=O)C(c1ccccc1)=C2C,197 to 199 °C
2,CC(C=[N+]([O-])C(C)(C)C)c1ccccc1 (stereo unspecified),56 °C
3,CC12CCC3c4ccc(O)cc4C(CC(=O)O)CC3C1CC(O)C2O (stereo unspecified),259 to 262 °C
4,OCc1cc(Cc2ccccc2)cs1,33 to 34 °C
5,CCCC(=O)C(=O)[C@H](CC1CCCCC1)NC(=O)[C@H](Cc1cn(S(=O)(=O)c2ccc(C)cc2)cn1)NC(=O)OC(C)(OC)OC,60 to 67 °C
6,O=c1[nH]c2cc(F)c(F)cc2cc1P(=O)(O)O,245 to 252 °C
7,CCOC(=O)Cc1ncc2c(n1)-c1ccc(Cl)cc1C(c1ccccc1F)=NC2,98 to 103 °C
8,CCN(CC)CCOc1ccc(Nc2ncc3c(n2)N(c2cccc(CCN(C)C)c2)C(=O)N(c2ccc(Cl)cc2Cl)C3)cc1,92 °C
9,CCCCS(=O)Cc1ccc(CCl)cc1 (stereo unspecified),112 to 113 °C
10,CCOC(=O)c1ccc(NN2CN(Nc3ccc(C(=O)OCC)cc3)CN(Nc3ccc(C(=O)OCC)cc3)C2)cc1,218 to 223 °C
11,COC(=O)c1sc(-c2ccc(C#N)cc2)nc1C,186 to 187 °C
12,CCOc1c(C(=O)c2cccs2)cnc2[nH]ncc12,202 to 205 °C
13,CC(C)(C)NC(=O)CN(C(=O)CN1C(=O)c2ccccc2C1=O)c1ccccc1,166 °C
14,O=[N+]([O-])c1cc(C2=NOC(c3cc(Cl)cc(Cl)c3)(C(F)(F)F)C2)ccc1-n1cncn1 (stereo unspecified),64 to 72 °C
15,CCCCNS(=O)(=O)c1cc(C(=O)CCl)ccc1Cl,89 °C
16,O=C(Cc1c(-c2ccccc2)c2cc(O)c(Cl)cc2oc1=O)Nc1ccc(Cl)cc1C(F)(F)F,246 to 247 °C
17,COc1cc(OC)cc(C(=O)N2CCN(C(=O)C3=Cc4cc(OC)c(OC)cc4CC3)CC2)c1,166 to 167 °C
18,c1cncc(Cn2c(-c3ccc4c(c3)OCO4)nc3ccccc32)c1,152 to 153 °C
19,Cc1cc(C(F)F)c2c(n1)C(O)CCC2 (stereo unspecified),101 to 104 °C
20,Cc1ccc(-c2c(C(=O)NCc3cc(C(F)(F)F)cc(C(F)(F)F)c3)n(CCCCO)c(=O)c3cnccc23)cc1,128 to 131 °C
21,CC1(C)CCC(C)(C)c2cc(CC#Cc3ccc(C(=O)O)c(O)c3)ccc21,178 to 180 °C
22,O=C(Nc1c(Cl)cccc1Cl)N1CCN(c2cnccn2)CC1,177 to 179 °C
23,COc1nc2cccccc-2n1,94 °C
